Values quoted from earlier work as cited in US20070286864A1, “Combined treatment with an EGFR kinase inhibitor and an agent that sensitizes tumor cells to the effects of EGFR kinase inhibitors” (priority 2006, published 2007).

Key:
[1] = test system: Calu6 cells; details: erlotinib single agent (10 μM), relatively insensitive = maximum growth inhibition less than 50%
[2] = test system: H1703 cells; details: erlotinib single agent (10 μM), relatively insensitive = maximum growth inhibition less than 50%
[3] = test system: H292 cells; details: erlotinib single agent (10 μM), sensitive = maximum growth inhibition greater than 50%
[4] = test system: H460 cells; details: erlotinib single agent (10 μM), relatively insensitive = maximum growth inhibition less than 50%
[5] = test system: H358 cells; details: erlotinib single agent (10 μM), sensitive = maximum growth inhibition greater than 50%

C#Cc1cccc(Nc2ncnc3cc(OCCOC)c(OCCOC)cc23)c1 [erlotinib, [6,7-bis(2-methoxyethoxy)-4-quinazolin-4-yl]-(3-ethynylphenyl)amine]
sensitivity of cell line to erlotinib [1]: relatively insensitive | sensitivity of cell line to erlotinib [2]: relatively insensitive | sensitivity of cell line to erlotinib [3]: sensitive | sensitivity of cell line to erlotinib [4]: relatively insensitive | sensitivity of cell line to erlotinib [5]: sensitive
